Results as given in ChEMBL document CHEMBL3045974, “Global antifungal profile optimization of chlorophenyl derivatives against Botrytis cinerea and Colletotrichum gloeosporioides” (2009).

Experiments:
Type in all cases: functional
[1] = system: Colletotrichum gloeosporioides; test: Antifungal activity against Colletotrichum gloeosporioides 20122-CECT assessed as inhibition of radial growth at 150 ug/mL at 25 degC measured after 5 days; details: 120 h, read-out: GI
[2] = system: Colletotrichum gloeosporioides; test: Antifungal activity against Colletotrichum gloeosporioides 20122-CECT assessed as inhibition of radial growth at 100 ug/mL at 25 degC measured after 5 days; details: 120 h, read-out: GI
[3] = system: Botrytis cinerea; test: Antifungal activity against Botryotinia fuckeliana 2100 assessed as inhibition of radial growth at 50 ug/mL at 25 degC measured after 5 days; details: Botrytis cinerea, 2100, 120 h; read-out: GI
[4] = system: Colletotrichum gloeosporioides; test: Antifungal activity against Colletotrichum gloeosporioides 20122-CECT assessed as inhibition of radial growth at 50 ug/mL at 25 degC measured after 5 days; details: 120 h, read-out: GI
[5] = system: Botrytis cinerea; test: Antifungal activity against Botryotinia fuckeliana 2100 assessed as inhibition of radial growth at 100 ug/mL at 25 degC measured after 5 days; details: Botrytis cinerea, 2100, 120 h; read-out: GI
[6] = system: Botrytis cinerea; test: Antifungal activity against Botryotinia fuckeliana 2100 assessed as inhibition of radial growth at 150 ug/mL at 25 degC measured after 5 days; details: Botrytis cinerea, 2100, 120 h; read-out: GI
[7] = system: Colletotrichum gloeosporioides; test: Antifungal activity against Colletotrichum gloeosporioides 20122-CECT assessed as inhibition of radial growth at 50 ug/mL at 25 degC measured after 4 days; details: 96 h, read-out: GI
[8] = system: Colletotrichum gloeosporioides; test: Antifungal activity against Colletotrichum gloeosporioides 20122-CECT assessed as inhibition of radial growth at 100 ug/mL at 25 degC measured after 4 days; details: 96 h, read-out: GI
[9] = system: Colletotrichum gloeosporioides; test: Antifungal activity against Colletotrichum gloeosporioides 20122-CECT assessed as inhibition of radial growth at 150 ug/mL at 25 degC measured after 4 days; details: 96 h, read-out: GI

| SMILES | inhibition of growth at 150 µg/mL [1] [%] | inhibition of growth at 100 µg/mL [2] [%] | inhibition of growth at 50 µg/mL [3] [%] | inhibition of growth at 50 µg/mL [4] [%] | inhibition of growth at 100 µg/mL [5] [%] | inhibition of growth at 150 µg/mL [6] [%] | inhibition of growth at 50 µg/mL [7] [%] | inhibition of growth at 100 µg/mL [8] [%] | inhibition of growth at 150 µg/mL [9] [%] |
| --- | --- | --- | --- | --- | --- | --- | --- | --- | --- |
| OC(c1ccccc1)c1ccc(Cl)cc1 (racemic) | 94 | 87 | 95 | 63 | 100 | 100 | – | – | – |
| O[C@H](c1ccccc1)c1ccc(Cl)cc1 | 100 | 94 | 99 | 73 | 100 | 100 | – | – | – |
| OC(c1ccc(Cl)cc1)C1CC1 (racemic) | 80 | 53 | 74 | 31 | 100 | 100 | – | – | – |
| CC[C@H](O)c1cccc(Cl)c1 | 49 | 37 | 64 | 32 | 71 | 82 | – | – | – |
| CC[C@H](O)c1ccc(Cl)cc1 | 33 | 29 | 62 | 28 | 73 | 92 | – | – | – |
| O=C(Cc1ccccc1)c1ccc(Cl)cc1 | – | – | 31 | – | 33 | 38 | 9 | 13 | 17 |
| CC[C@@H](OC(C)=O)c1ccc(Cl)cc1 | 0 | 0 | 12 | 0 | 40 | 44 | – | – | – |
| Clc1ccc(C2OC2c2ccccc2)cc1 (centres undefined) | 0 | 0 | – | 0 | – | 28 | – | – | – |
| O[C@H](c1ccc(Cl)cc1)C1CC1 | – | – | 63 | – | 80 | 97 | 20 | 23 | 27 |
| O[C@H](c1ccccc1)[C@H](O)c1ccc(Cl)cc1 | 51 | 42 | 32 | 22 | 59 | 62 | – | – | – |
| CC[C@@H](OC(C)=O)c1cccc(Cl)c1 | 0 | 0 | 22 | 0 | 29 | 30 | – | – | – |
